Test results as given in patent US8188059B2, “Compounds and methods for modulating expression of GCGR” (Isis Pharmaceuticals, Inc., priority 2006, dated 2012).
Strand notation (5' to 3'): a small letter for the sugar, then the base; units joined by * are phosphorothioate-linked, units joined directly phosphodiester-linked; [ ] holds rarer units or linkages, { } end groups; capitals alone tell only the bases. [PALM-N] = nucleoside bearing a 2'-(butylacetamido)-palmitamide (C16 palmitic acid) substituent (N: the base); e = 2'-O-(2-methoxyethyl) (MOE); l = locked nucleic acid (LNA); k = constrained ethyl (cEt); [5mC] = 5-methylcytosine; d = 2'-deoxy (DNA)

Experiments:
ApoB mRNA [1] = assay: ApoB mRNA in liver of Balb/c mice, BNA short antisense compounds, i.p. twice per week for three weeks (Example 26, Table 89); type: in vivo, mouse; settings: relative to saline
Protocol: The short antisense compounds shown in Table 88 were tested for their effects in vivo. […] A 5-10-5 MOE gapmer was used for a control treatment. Mice were sacrificed approximately 48 hours following the final dose. Liver tissue was collected for RNA isolation, and blood was collected for serum chemistry analyses. ApoB mRNA levels were measured by real-time PCR as described herein. ApoB mRNA levels were normalized to RNA levels as determined by RIBOGREEN, and are presented in Table 89 as percent inhibition relative to ApoB mRNA levels in saline-treated control animals.

ApoB mRNA [2] = assay: ApoB mRNA in liver of Balb/c mice, single i.p. dose 8, 4, 2 or 1 μmol/kg, with ED50 (Example 28, Table 92); type: in vivo, mouse; settings: Balb/c mice, relative to saline
Protocol: (§1) The short antisense compounds tested were ISIS 387462 and ISIS 398296. Each dose group consisted of four animals. A 5-10-5 MOE gapmer was used for a control treatment. Mice were sacrificed approximately 48 hours following the final dose. Liver tissue was collected for RNA isolation, and blood was collected for serum chemistry analyses. ApoB mRNA levels were measured by real-time PCR as described herein. ApoB mRNA levels were normalized to RNA levels as determined by RIBOGREEN, and are presented in Table 92 as percent inhibition relative to ApoB mRNA levels in saline-treated control animals.
At the 8 umol/kg dose, ApoB inhibition by the short antisense compounds was greater than observed with a 5-10-5 MOE gapmer at an equivalent dose. […] Triglycerides were reduced at the highest dose.

PTP1B mRNA [3] = assay: Antisense inhibition of human PTP1B in HuVEC cells at 3 nM (Example 23, Table 84); type: cell-based
Protocol: Short antisense compounds targeted to a PTP1B nucleic acid were tested for their effects on PTP1B mRNA in vitro. Cultured HuVEC cells at a density of 5000 cells per well in a 96-well plate were treated as described herein with 3 nM of short antisense compound. After the treatment period, RNA was isolated from the cells and PTP1B mRNA levels were measured by quantitative real-time PCR, as described herein. PTP1B mRNA levels were adjusted according to total RNA content as measured by RIBOGREEN®. Results are presented as percent inhibition of PTP1B (% Inhib), relative to untreated control cells.

PTP1B mRNA [4] = assay: Antisense inhibition of human PTP1B in HepG2 cells at 25 nM (Example 24, Table 85); type: cell-based
Protocol: Short antisense compounds targeted to a PTP1B nucleic acid were tested for their effects on PTP1B mRNA in vitro. Cultured HepG2 cells at a density of 10000 cells per well in a 96-well plate were treated with 25 nM of antisense oligonucleotide. After the treatment period, RNA was isolated from the cells and PTP1B mRNA levels were measured by quantitative real-time PCR, as described herein. PTP1B mRNA levels were adjusted according to total RNA content as measured by RIBOGREEN®. Results are presented as percent inhibition (% Ihib) of PTP1B, relative to untreated control cells.

PTP1B mRNA [5] = assay: Dose response for human PTP1B in HuVEC cells, Primer Probe Set 198 (Example 25, Table 86); type: cell-based
Protocol: (§2) Human vascular endothelial (HuVEC) cells were plated at a density of 5000 cells per well and treated as described herein with nM concentrations of short antisense compound as indicated in Table 86. After the treatment period, RNA was isolated from the cells and PTP1B mRNA levels were measured by quantitative real-time PCR, as described herein. PTP1B mRNA levels were adjusted according to total RNA content as measured by RIBOGREEN®. Two different human PTP1B primer probe sets were used to measure mRNA levels. Results with Primer Probe Set (PPS) 198 are shown in Table 86, and results with Primer Probe Set (PPS) 3000 are shown in Table 87. Results are presented as percent inhibition of PTP1B mRNA expression relative to untreated control cells.

PTP1B mRNA [6] = assay: Dose response for human PTP1B in HuVEC cells, Primer Probe Set 3000 (Example 25, Table 87); type: cell-based
Protocol: as §2

mouse SGLT2 mRNA [7] = assay: Mouse SGLT2 mRNA levels in kidney, additional 1-10-1 and 2-8-2 MOE gapmers, Balb/c mice (Example 15, Table 68); type: in vivo
mouse SGLT2 mRNA [8] = assay: Mouse SGLT2 mRNA levels in kidney, MOE versus Methyleneoxy BNA gapmers, Balb/c mice (Example 15, Table 69); type: in vivo
Protocol: The effect of ISIS 379692 1-10-1 MOE gapmer and ISIS 388625 2-8-2 MOE gapmer are compared with the effect of ISIS 392170 1-10-1 Methyleneoxy BNA Gapmer and ISIS 392173 2-8-2 Methyleneoxy BNA Gapmer (see Table 69) on mouse SGLT2 mRNA levels in vivo. Data are taken from three experiments in which male 6-week old Balb/c mice were dosed twice per week for three weeks with 5, 25 and 125 nmol/kg of either the ISIS 379692 1-10-1 MOE gapmer or the ISIS 388625 2-8-2 MOE gapmer given by intraperitoneal injection. Mice were sacrificed 48 hours following last administration and evaluated for SGLT2 mRNA levels in kidney. Target levels were determined by RT, real-time PCR as described by other examples herein. PCR results were normalized to an internal ISIS control. The data are expressed as percent change (“+” indicates an increase, “−” indicates a decrease) relative to saline treated animals and are illustrated in Table 69.

rat SGLT2 mRNA = assay: Rat SGLT2 mRNA levels in kidney, ISIS 379692 and ISIS 388625, Sprague-Dawley rats (Example 15, Table 70); type: in vivo; settings: i.p. twice per week for three weeks
Protocol: The effect of ISIS 379692 1-10-1 MOE gapmer and ISIS 388625 MOE 2-8-2 gapmer (see Table 70) on rat SGLT2 mRNA levels in vivo. […] Rats were sacrificed 48 hours following last administration and evaluated for SGLT2 levels in kidney. Target levels were determined by RT, real-time PCR as described by other examples herein. PCR results were normalized to an internal ISIS control.

[9] = Plasma glucose in ZDF rats, once a week for twelve weeks (Example 16, Table 71); type: in vivo, rat; settings: compared to PBS and control treated animals
Protocol: (§3) ISIS 388625, 388626 and control oligo ISIS 388628 were analyzed for their effect on ZDF rat plasma glucose levels and HbA1c. The leptin receptor deficient Zucker diabetic fatty (ZDF) rat is a useful model for the investigation of type 2 diabetes. Diabetes develops spontaneously in these male rats at ages 8-10 weeks, and is associated with hyperphagia, polyuria, polydipsia, and impaired weight gain, symptoms which parallel the clinical symptoms of diabetes (Phillips M S, et al., 1996, Nat Genet. 13, 18-19). Six week old ZDF rats were injected intraperitoneally with short antisense compound at a dose of 400 nM/kg once a week for twelve weeks. Data are illustrated in Tables 71 and 72.

[10] = HbA1c status in ZDF rats (Example 16, Table 72); type: in vivo, rat; settings: compared to PBS and control treated animals
Protocol: as §3

dog SGLT2 mRNA = assay: Dog SGLT2 mRNA levels in kidney, beagle dogs, subcutaneous (Example 17, Table 73); type: in vivo; settings: for % change in SGLT2 expression relative to saline: subcutaneous twice weekly, day 46
Protocol: ISIS 388625 is a 2-8-2 MOE Gapmer with sequence […] (SEQ ID NO: 246) (e.g. see Table 71). The effect of ISIS 388625 on dog SGLT2 mRNA levels. Data are taken from two dosing groups in which a total of nine male beagle dogs were dosed with either one or ten mg/kg/week of ISIS or saline given by subcutaneous injection twice weekly. On day 46 of the study all dogs were sacrificed and evaluated for SGLT2 levels in kidney. Target levels were determined by quantitative RT, real-time PCR as described by other examples herein. PCR results were normalized to an internal ISIS control.

[11] = Standard glucose tolerance test and urinary glucose excretion in dog (Example 17); type: in vivo
From the text: Even greater reduction can be achieved at slightly higher doses. […] Peak plasma glucose levels were decreased by over 50% on average and the subsequent drop in glucose was lessened compared to saline controls in a standard glucose tolerance test.

ApoB mRNA [12] = assay: ApoB mRNA in liver of Balb/c mice, palmitic acid conjugates, single i.p. dose, with ED50 (Example 30, Table 95); type: in vivo, mouse; settings: single i.p. injection
Protocol: as §1, with “0.4,” for “The short antisense compounds tested were ISIS 387462”, “0.16 umol/kg.” for “ISIS 398296.”, “95” for “92”
(§4) At the 2.5 umol/kg dose, ApoB inhibition by the short antisense compounds was greater than observed with a 5-10-5 MOE gapmer at an equivalent dose. […] Triglycerides were reduced at the 2.5 and […] doses of ISIS 387462 and ISIS 391872.

[13] = Triglycerides, total cholesterol, HDL-C, LDL-C and adverse effects (Example 30); type: in vivo, mouse
Protocol: as §1, with “0.4,” for “The short antisense compounds tested were ISIS 387462”, “0.16 umol/kg.” for “ISIS 398296.”, “95” for “92”
as §4

[14] = 0.1 umol/kg i.p. twice per week for three weeks

398296 (antisense kG*kG*dT*dA*dC*dA*dT*dG*dG*dA*dA*dG*kT*kC) [compound 398296]
% Inhib (ApoB mRNA in liver) (ApoB mRNA [1]; [14]): 17%
% Inhib (ApoB mRNA in liver) (ApoB mRNA [1]; 0.32 umol/kg i.p. twice per week for three weeks): 35%
% Inhib (ApoB mRNA in liver) (ApoB mRNA [1]; 1 umol/kg i.p. twice per week for three weeks): 80%
% Inhib (ApoB mRNA in liver) (ApoB mRNA [1]; 3.2 umol/kg i.p. twice per week for three weeks): 98%
% Inhib (ApoB mRNA in liver) (ApoB mRNA [2]; single i.p. dose 1 umol/kg): 19%
% Inhib (ApoB mRNA in liver) (ApoB mRNA [2]; single i.p. dose 2 umol/kg): 54%
% Inhib (ApoB mRNA in liver) (ApoB mRNA [2]; single i.p. dose 4 umol/kg): 81%
% Inhib (ApoB mRNA in liver) (ApoB mRNA [2]; single i.p. dose 8 umol/kg): 97%

399301 (antisense eG*eT*dG*dT*dG*d[5mC]*dA*d[5mC]*dA*d[5mC]*dA*dG*e[5mC]*eT) [compound 399301]
% Inhib (PTP1B mRNA) (PTP1B mRNA [3]): 55%
% Inhib (PTP1B mRNA) (PTP1B mRNA [4]): 43%
% Inhibition of PTP1B mRNA (PTP1B mRNA [5]; PPS 198, 1.11 nM): 8%
% Inhibition of PTP1B mRNA (PTP1B mRNA [5]; PPS 198, 3.33 nM): 63%
% Inhibition of PTP1B mRNA (PTP1B mRNA [5]; PPS 198, 10.0 nM): 91%
% Inhibition of PTP1B mRNA (PTP1B mRNA [5]; PPS 198, 30.0 nM): 97%
% Inhibition of PTP1B mRNA (PTP1B mRNA [6]; PPS 3000, 1.11 nM): 16%
% Inhibition of PTP1B mRNA (PTP1B mRNA [6]; PPS 3000, 3.33 nM): 65%
% Inhibition of PTP1B mRNA (PTP1B mRNA [6]; PPS 3000, 10.0 nM): 93%
% Inhibition of PTP1B mRNA (PTP1B mRNA [6]; PPS 3000, 30.0 nM): 99%

ISIS 388625: SGLT2; TGTTCCAGCCCA 2-8-2 MOE Gapmer (antisense eT*eG*dT*dT*d[5mC]*d[5mC]*dA*dG*d[5mC]*d[5mC]*e[5mC]*eA)
% change in SGLT2 expression relative to saline (mouse SGLT2 mRNA [7]; 0.02 umol/kg i.p. twice per week for three weeks): −65%
% change in SGLT2 expression relative to saline (mouse SGLT2 mRNA [7]; [14]): −88%
% change in SGLT2 expression relative to saline (mouse SGLT2 mRNA [7]; 0.5 umol/kg i.p. twice per week for three weeks): −90%
SGLT2 mRNA, percent change relative to saline treated animals (mouse SGLT2 mRNA [8]; 5 nmol/kg i.p. twice per week for three weeks): −18 percent change
SGLT2 mRNA, percent change relative to saline treated animals (mouse SGLT2 mRNA [8]; 25 nmol/kg i.p. twice per week for three weeks): −47 percent change
SGLT2 mRNA, percent change relative to saline treated animals (mouse SGLT2 mRNA [8]; 125 nmol/kg i.p. twice per week for three weeks): −70 percent change
% change in SGLT2 expression relative to saline (rat SGLT2 mRNA; dose 3.125 umol/kg (head)): +25%
% change in SGLT2 expression relative to saline (rat SGLT2 mRNA; dose 12.5 umol/kg (head)): −15%
% change in SGLT2 expression relative to saline (rat SGLT2 mRNA; dose 50 umol/kg (head)): −65%
% change in SGLT2 expression relative to saline (rat SGLT2 mRNA; dose 200 umol/kg (head)): −80%
Plasma glucose levels [9]: significantly reduced
HbA1C [10]: significantly reduced
reduction of SGLT2 mRNA / inhibition of the expression of SGLT2 (dog SGLT2 mRNA; 1 mg/kg/wk dose): greater than 80%
% change in SGLT2 expression relative to saline (dog SGLT2 mRNA; 1 mg/kg/wk): −85%
% change in SGLT2 expression relative to saline (dog SGLT2 mRNA; 10 mg/kg/wk): −95%
Urinary glucose excretion [11]: increased
glucose tolerance [11]: improved glucose tolerance
Peak plasma glucose levels decreased, on average ([11]; standard glucose tolerance test, compared to saline controls): over 50%

ISIS 391872: ApoB; GGTACATGGAAGTC 1-1-10-2 2′-(butylacetomido)-palmitamide Methyleneoxy BNA/Methyleneoxy BNA Unmodified cytosines in gap (antisense [PALM-G]*lG*dT*dA*dC*dA*dT*dG*dG*dA*dA*dG*lT*l[5mC])
estimated ED50 (ApoB mRNA [12]): 1.9 mg/kg
LDL-C ([13]; Example 30): fell below the limit of detection
Triglycerides ([13]; at the 2.5 and 1.0 mg/kg doses (so in the source)): reduced
total cholesterol, HDL-C and LDL-C ([13]; dose-dependent manner): markedly reduced
